Our source for the relative viability values is the supplement of paper PMC10307832.

Experiment in all cases: relative viability (nuclei count vs DMSO), 5 days (fraction); higher = more cells survive
Compound in the assay “Doramapimod + Foretinib”: Cc1ccc(-n2nc(C(C)(C)C)cc2NC(=O)Nc2ccc(OCCN3CCOCC3)c3ccccc23)cc1 [Doramapimod] + COc1cc2c(Oc3ccc(NC(=O)C4(C(=O)Nc5ccc(F)cc5)CC4)cc3F)ccnc2cc1OCCCN1CCOCC1 [Foretinib] (partner 0.25 µM)
Put shortly:
(§1)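 Values are medians from duplicate plates. Each reflects relative viability, defined as the nuclei count of treated wells over that of vehicle wells. Lung cancer cell lines in 1536-well plates were pin-tool dosed one day after seeding with one drug alone or with a fixed anchor-drug dose plus five library-drug doses (not always all listed) in √10 steps, then fixed, stained and imaged at 4× after 5 days.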

Compound in the assay “IPA-3 + Pemetrexed”: C1=CC=C2C(=C1)C=CC(=C2SSC3=C(C=CC4=CC=CC=C43)O)O [IPA-3] + Nc1nc2[nH]cc(CCc3ccc(C(=O)N[C@@H](CCC(=O)O)C(=O)O)cc3)c2c(=O)[nH]1 [Pemetrexed] (partner 0.2 µM)
A digest of the protocol: as §1

Compound in the assay “Doramapimod + Pictilisib”: Cc1ccc(-n2nc(C(C)(C)C)cc2NC(=O)Nc2ccc(OCCN3CCOCC3)c3ccccc23)cc1 [Doramapimod] + CS(=O)(=O)N1CCN(Cc2cc3nc(-c4cccc5[nH]ncc45)nc(N4CCOCC4)c3s2)CC1 [Pictilisib] (partner 1 µM)
A digest of the protocol:
as §1

Compound in the assay “RAF265 + Alpelisib”: Cn1c(Nc2ccc(C(F)(F)F)cc2)nc2cc(Oc3ccnc(-c4ncc(C(F)(F)F)[nH]4)c3)ccc21 [RAF265] + Cc1nc(NC(=O)N2CCC[C@H]2C(N)=O)sc1-c1ccnc(C(C)(C)C(F)(F)F)c1 [Alpelisib] (partner 2 µM)
A digest of the protocol:
as §1

In the case of 201T, the relative viability in the assay with Doramapimod + Foretinib (first compound 0.02 µM) is 1.01; in the assay with Doramapimod + Foretinib (first compound 0.06325 µM) it was 1.03; in the assay with Doramapimod + Foretinib (first compound 0.2 µM), 1.1; with Doramapimod + Foretinib (first compound 0.6325 µM), 1.41; with Doramapimod + Foretinib (first compound 2 µM), 0.974; with IPA-3 + Pemetrexed (first compound 0.2 µM), 0.311. Besides, the relative viability amounted to 0.349 with IPA-3 + Pemetrexed (first compound 0.6325 µM); 0.373 in the assay with IPA-3 + Pemetrexed (first compound 2 µM); 0.295 with IPA-3 + Pemetrexed (first compound 6.325 µM); 0.338 with IPA-3 + Pemetrexed (first compound 20 µM); 0.696 with Doramapimod + Pictilisib (first compound 0.02 µM); 0.662 in the assay with Doramapimod + Pictilisib (first compound 0.06325 µM). Further, the relative viability came out at 0.668 with Doramapimod + Pictilisib (first compound 0.2 µM); 0.863 with Doramapimod + Pictilisib (first compound 0.6325 µM); 0.609 with Doramapimod + Pictilisib (first compound 2 µM); 0.981 with RAF265 + Alpelisib (first compound 0.01 µM); 1.02 with RAF265 + Alpelisib (first compound 0.03162 µM); 1.07 with RAF265 + Alpelisib (first compound 0.1 µM). For the same cell line, the relative viability was found to be 1.06 with RAF265 + Alpelisib (first compound 0.3162 µM) and 0.981 with RAF265 + Alpelisib (first compound 1 µM).

Take A549: the relative viability with Doramapimod + Foretinib (first compound 0.02 µM) is 0.91; in the assay with Doramapimod + Foretinib (first compound 0.06325 µM), 1; with Doramapimod + Foretinib (first compound 0.2 µM) it was 0.992; with Doramapimod + Foretinib (first compound 0.6325 µM), 1.06; in the assay with Doramapimod + Foretinib (first compound 2 µM) it was 0.875; with Doramapimod + Pictilisib (first compound 0.02 µM), 0.533. Moreover, the relative viability with Doramapimod + Pictilisib (first compound 0.06325 µM) was 0.492; with Doramapimod + Pictilisib (first compound 0.2 µM) it was 0.522; with Doramapimod + Pictilisib (first compound 0.6325 µM) it was 0.497; with Doramapimod + Pictilisib (first compound 2 µM), 0.421; with RAF265 + Alpelisib (first compound 0.01 µM), 0.761; in the assay with RAF265 + Alpelisib (first compound 0.03162 µM), 0.612. The relative viability with RAF265 + Alpelisib (first compound 0.1 µM) was determined as 0.541; with RAF265 + Alpelisib (first compound 0.3162 µM), 0.244; with RAF265 + Alpelisib (first compound 1 µM) it was 0.178.

For A-427, the relative viability was 1.02 in the assay with Doramapimod + Foretinib (first compound 0.02 µM); 1.15 in the assay with Doramapimod + Foretinib (first compound 0.06325 µM); 1.12 with Doramapimod + Foretinib (first compound 0.2 µM); 0.997 with Doramapimod + Foretinib (first compound 2 µM); 1.06 in the assay with IPA-3 + Pemetrexed (first compound 0.2 µM); 1.01 with IPA-3 + Pemetrexed (first compound 0.6325 µM). Moreover, the relative viability was 0.998 with IPA-3 + Pemetrexed (first compound 2 µM); 0.903 in the assay with IPA-3 + Pemetrexed (first compound 6.325 µM); 0.982 in the assay with IPA-3 + Pemetrexed (first compound 20 µM); 0.642 in the assay with Doramapimod + Pictilisib (first compound 0.02 µM); 0.814 with Doramapimod + Pictilisib (first compound 0.06325 µM); 0.845 in the assay with Doramapimod + Pictilisib (first compound 0.2 µM). The relative viability with Doramapimod + Pictilisib (first compound 2 µM) was 0.676; with RAF265 + Alpelisib (first compound 0.01 µM), 1.17; with RAF265 + Alpelisib (first compound 0.03162 µM), 1.01; with RAF265 + Alpelisib (first compound 0.1 µM) it was 0.976; with RAF265 + Alpelisib (first compound 0.3162 µM), 0.723; with RAF265 + Alpelisib (first compound 1 µM) it was 0.402.

As to ABC-1, the relative viability amounted to 1.39 in the assay with Doramapimod + Foretinib (first compound 0.02 µM); 1.11 with Doramapimod + Foretinib (first compound 0.06325 µM); 1.05 with Doramapimod + Foretinib (first compound 0.2 µM); 0.919 with Doramapimod + Foretinib (first compound 0.6325 µM); 0.881 with Doramapimod + Foretinib (first compound 2 µM); 0.847 in the assay with Doramapimod + Pictilisib (first compound 0.02 µM). Also, the relative viability with Doramapimod + Pictilisib (first compound 0.06325 µM) turned out to be 0.614; in the assay with Doramapimod + Pictilisib (first compound 0.2 µM), 0.646; with Doramapimod + Pictilisib (first compound 0.6325 µM) it was 0.757; in the assay with Doramapimod + Pictilisib (first compound 2 µM) it was 0.737; with RAF265 + Alpelisib (first compound 0.01 µM), 1.13; with RAF265 + Alpelisib (first compound 0.03162 µM), 1.01. Besides, the relative viability in the assay with RAF265 + Alpelisib (first compound 0.1 µM) worked out at 1.01; with RAF265 + Alpelisib (first compound 0.3162 µM), 1.05; with RAF265 + Alpelisib (first compound 1 µM) it was 0.619.

Consider BEN, for which the relative viability in the assay with Doramapimod + Foretinib (first compound 0.02 µM) came to 0.663; with Doramapimod + Foretinib (first compound 0.06325 µM), 0.639; in the assay with Doramapimod + Foretinib (first compound 0.2 µM) it was 0.603; in the assay with Doramapimod + Foretinib (first compound 0.6325 µM) it was 0.469; with Doramapimod + Foretinib (first compound 2 µM), 0.676; with IPA-3 + Pemetrexed (first compound 0.2 µM) it was 0.751. For the same cell line, the relative viability is 0.843 with IPA-3 + Pemetrexed (first compound 0.6325 µM); 0.852 with IPA-3 + Pemetrexed (first compound 2 µM); 0.814 in the assay with IPA-3 + Pemetrexed (first compound 6.325 µM); 0.774 with IPA-3 + Pemetrexed (first compound 20 µM); 0.578 with Doramapimod + Pictilisib (first compound 0.02 µM); 0.501 with Doramapimod + Pictilisib (first compound 0.06325 µM). Further, the relative viability worked out at 0.524 with Doramapimod + Pictilisib (first compound 0.2 µM); 0.559 with Doramapimod + Pictilisib (first compound 0.6325 µM); 0.531 in the assay with Doramapimod + Pictilisib (first compound 2 µM); 1.08 with RAF265 + Alpelisib (first compound 0.01 µM); 1.05 in the assay with RAF265 + Alpelisib (first compound 0.03162 µM); 1.2 with RAF265 + Alpelisib (first compound 0.1 µM). Also, the relative viability with RAF265 + Alpelisib (first compound 0.3162 µM) amounted to 1.1; in the assay with RAF265 + Alpelisib (first compound 1 µM) it was 0.814.

With CAL-12T, the relative viability with Doramapimod + Foretinib (first compound 0.02 µM) is 1.11; with Doramapimod + Foretinib (first compound 0.06325 µM) it was 1.15; with Doramapimod + Foretinib (first compound 0.2 µM), 1.03; in the assay with Doramapimod + Foretinib (first compound 0.6325 µM), 1.1; in the assay with Doramapimod + Foretinib (first compound 2 µM) it was 0.983; in the assay with IPA-3 + Pemetrexed (first compound 0.2 µM), 1.21. The relative viability with IPA-3 + Pemetrexed (first compound 0.6325 µM) was 0.983; with IPA-3 + Pemetrexed (first compound 2 µM) it was 0.942; in the assay with IPA-3 + Pemetrexed (first compound 6.325 µM), 1.26; with IPA-3 + Pemetrexed (first compound 20 µM), 1.24; with Doramapimod + Pictilisib (first compound 0.02 µM), 0.456; with Doramapimod + Pictilisib (first compound 0.06325 µM), 0.378. In addition, the relative viability with Doramapimod + Pictilisib (first compound 0.2 µM) amounted to 0.463; with Doramapimod + Pictilisib (first compound 0.6325 µM) it was 0.33; with Doramapimod + Pictilisib (first compound 2 µM) it was 0.392; in the assay with RAF265 + Alpelisib (first compound 0.01 µM), 1.26; in the assay with RAF265 + Alpelisib (first compound 0.03162 µM) it was 1.04; with RAF265 + Alpelisib (first compound 0.1 µM), 0.944. Moreover, the relative viability with RAF265 + Alpelisib (first compound 0.3162 µM) was found to be 0.575; in the assay with RAF265 + Alpelisib (first compound 1 µM), 0.354.

In the case of COR-L23, the relative viability with Doramapimod + Foretinib (first compound 0.02 µM) was found to be 0.945; with Doramapimod + Foretinib (first compound 0.06325 µM), 0.926; with Doramapimod + Foretinib (first compound 0.2 µM), 0.966; with Doramapimod + Foretinib (first compound 0.6325 µM), 1.01; with Doramapimod + Foretinib (first compound 2 µM) it was 0.855; with IPA-3 + Pemetrexed (first compound 0.2 µM) it was 0.212. Besides, the relative viability turned out to be 0.194 with IPA-3 + Pemetrexed (first compound 0.6325 µM); 0.193 with IPA-3 + Pemetrexed (first compound 2 µM); 0.198 in the assay with IPA-3 + Pemetrexed (first compound 6.325 µM); 0.204 in the assay with IPA-3 + Pemetrexed (first compound 20 µM); 0.812 in the assay with Doramapimod + Pictilisib (first compound 0.02 µM); 0.791 with Doramapimod + Pictilisib (first compound 0.06325 µM). The relative viability came out at 0.796 with Doramapimod + Pictilisib (first compound 0.2 µM); 0.797 with Doramapimod + Pictilisib (first compound 0.6325 µM); 0.751 with Doramapimod + Pictilisib (first compound 2 µM); 0.785 with RAF265 + Alpelisib (first compound 0.01 µM); 0.696 in the assay with RAF265 + Alpelisib (first compound 0.03162 µM); 0.669 with RAF265 + Alpelisib (first compound 0.1 µM). In addition, the relative viability turned out to be 0.389 with RAF265 + Alpelisib (first compound 0.3162 µM) and 0.304 with RAF265 + Alpelisib (first compound 1 µM).

As for COR-L 105, the relative viability with Doramapimod + Foretinib (first compound 0.02 µM) came to 1.03; with Doramapimod + Foretinib (first compound 0.06325 µM), 0.834; with Doramapimod + Foretinib (first compound 0.2 µM), 1.04; with Doramapimod + Foretinib (first compound 0.6325 µM), 1.34; in the assay with Doramapimod + Foretinib (first compound 2 µM), 0.917; in the assay with IPA-3 + Pemetrexed (first compound 0.2 µM), 1.22. The relative viability with IPA-3 + Pemetrexed (first compound 0.6325 µM) was 0.904; with IPA-3 + Pemetrexed (first compound 2 µM), 1.07; in the assay with IPA-3 + Pemetrexed (first compound 6.325 µM) it was 1.18; with IPA-3 + Pemetrexed (first compound 20 µM), 1.14; with Doramapimod + Pictilisib (first compound 0.02 µM) it was 0.425; with Doramapimod + Pictilisib (first compound 0.06325 µM) it was 0.344. The relative viability is 0.374 with Doramapimod + Pictilisib (first compound 0.2 µM); 0.426 in the assay with Doramapimod + Pictilisib (first compound 0.6325 µM); 0.379 with Doramapimod + Pictilisib (first compound 2 µM); 1.09 with RAF265 + Alpelisib (first compound 0.01 µM); 0.948 with RAF265 + Alpelisib (first compound 0.03162 µM); 1.16 with RAF265 + Alpelisib (first compound 0.1 µM). Also, the relative viability in the assay with RAF265 + Alpelisib (first compound 0.3162 µM) was determined as 0.603; with RAF265 + Alpelisib (first compound 1 µM), 0.461.
